From patent US5925529A, “Method for discovery of peptide agonists” (The Regents of the University of California, priority 1995, dated 1999)
Entries after “also recorded” stand apart in the source; their conditions may differ.

How the values were obtained:
[1] = biological target: T1, wild type human thrombin receptor (Homo sapiens, UniProt P25116); experiment: Agonist-induced 45Ca release from Xenopus oocytes expressing the wild type thrombin receptor; format: cell-based; settings: Xenopus oocytes expressing epitope tagged wild type human thrombin receptor; compared with SFLLR peptide (FIG. 5A)
T1 construct: expressed in transfected cells; host or cells: Xenopus laevis oocytes (cRNA)
T1 sequence (P25116 22-425): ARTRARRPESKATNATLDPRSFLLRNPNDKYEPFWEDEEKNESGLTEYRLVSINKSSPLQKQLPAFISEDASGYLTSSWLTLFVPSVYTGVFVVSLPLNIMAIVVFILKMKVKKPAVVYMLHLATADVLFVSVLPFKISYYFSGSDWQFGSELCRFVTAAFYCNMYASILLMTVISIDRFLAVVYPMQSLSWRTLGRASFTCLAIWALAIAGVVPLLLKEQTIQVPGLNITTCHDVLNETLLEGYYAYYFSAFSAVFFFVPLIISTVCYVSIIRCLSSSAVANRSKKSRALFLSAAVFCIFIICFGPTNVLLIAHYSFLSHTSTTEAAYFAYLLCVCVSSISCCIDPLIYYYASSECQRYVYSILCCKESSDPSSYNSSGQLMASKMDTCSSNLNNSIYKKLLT
Description: (§1) Xenopus oocytes were harvested from female Xenopus laevis and processed using published techniques. Coleman, A., In Transcription and Translation: A Practical Approach, Oxford: IRL Press, pp. 271-302 (1984); Williams et al., PNAS 85: 4939-4943 (1988). To remove follicular cells, oocytes were incubated for 4 hr at room temperature with 1 mg/ml Sigma type II collagenase in modified Barth's solution (MBSH) without Ca^2+, then washed and incubated overnight at 18° C. in MBSH II (MBSH containing 1 mg/ml bovine serum albumin, 1 ml/ml Ficoll, 100 U/ml penicillin, 100 μg/ml streptomycin, and 50 μg/ml gentamicin). Dumont stage V oocytes were selected and microinjected with 5 to 50 nl of mRNA (1 μg/μl in 10 mM HEPES, pH 7.0). Microinjected oocytes were cultured for 24 hr at 18° C. in MBSH then selected for functional assays.
(§2) Agonist-induced increases in ^45 Ca^2+ release were assessed by published techniques. Williams et al., PNAS 85:4939-4943 (1988). […] The harvested medium was analyzed by scintillation counting to determine ^45 Ca^2+ release by the oocytes during each 10 min incubation. […] At this point, two additional 10 min collections were obtained, then medium including agonist was added and agonist-induced ^45 Ca^2+ release determined. […]

uninjected oocytes = experiment: 45Ca release in uninjected Xenopus oocytes (control for receptor dependence); format: cell-based, Xenopus laevis
Description: as §1, §2

Human fMLF receptor = biological target: T2, Human fMLF receptor (Homo sapiens, UniProt P21462); experiment: Agonist-induced 45Ca release from Xenopus oocytes expressing the formyl peptide receptor; format: cell-based; settings: Xenopus oocytes injected with human fMLF receptor cRNA; compared with fMLF (FIG. 2)
T2 construct: expressed in transfected cells; host or cells: Xenopus laevis oocytes microinjected with cRNA
T2 sequence (P21462 1-350): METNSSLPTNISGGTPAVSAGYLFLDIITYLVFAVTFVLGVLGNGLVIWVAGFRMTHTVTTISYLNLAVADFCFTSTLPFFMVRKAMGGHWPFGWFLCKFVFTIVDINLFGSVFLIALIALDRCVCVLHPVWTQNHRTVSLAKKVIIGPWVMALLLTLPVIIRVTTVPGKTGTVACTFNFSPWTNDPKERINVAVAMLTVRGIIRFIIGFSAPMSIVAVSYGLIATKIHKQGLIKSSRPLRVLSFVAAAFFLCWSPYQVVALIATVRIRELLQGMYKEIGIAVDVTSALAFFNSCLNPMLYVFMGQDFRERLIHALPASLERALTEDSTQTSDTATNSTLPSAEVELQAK
Description: as §1, with “Dumont stage V oocytes were selected and microinjected with 5 to 50 nl of mRNA (1 μg/μl in 10 mM HEPES, pH 7.0). Microinjected oocytes were cultured for 24 hr at 18° C. in MBSH then selected for functional assays.” left out
Agonist-induced increases in ^45 Ca^2+ release were assessed by published techniques. […] The harvested medium was analyzed by scintillation counting to determine ^45 Ca^2+ release by the oocytes during each 10 min incubation. […] At this point, two additional 10 min collections were obtained, then medium including agonist was added and agonist-induced ^45 Ca^2+ release determined.
Formyl peptide receptor response to its classical agonist fMLF (SEQ ID NO:12) and to the new agonist derived from tethered ligand library. […] Xenopus oocytes were microinjected with 5 ng cRNA transcribed from this construct, cultured for 24 hours, and ^45 Ca release in response to the indicated concentration of peptides was measured as described above.

formyl peptide receptor = settings: compared with f-MLF; cited from earlier work

Row | Substance | agonist activity / signaling (45Ca release) at the thrombin receptor [1] | signaling (45Ca release) in uninjected oocytes (uninjected oocytes) | agonist activity / signaling (45Ca release) at the formyl peptide receptor (Human fMLF receptor) | activity of the unformylated peptide relative to f-MLF (fold less activity) (formyl peptide receptor)
1 | GFIYF | nearly as effective as the SFLLR; also recorded: receptor-dependent | did not cause signaling | did not cause signaling | 
2 | MLF |  |  |  | at least 1000 fold
